Source: patent publication US20230121611A1, “Monohydrate Salt of Denatonium Acetate” (priority 2021, published 2023)
Entries after “also recorded” stand apart in the source; their conditions may differ.

What was measured:
[1] = Form stability of further XRPD patterns on storage or standing (reanalysis by XRPD); format: physicochemical; conditions: for XRPD form after standing on disc for 4 hours / XRPD form after standing overnight on disc: ambient lab conditions; for XRPD form after standing on disc for 4 hours: 4 hours on XRPD disc; for XRPD form after standing overnight on disc: room temperature
Source text: (§1) It was then removed from the instrument and a portion immediately analyzed by XRPD.
The frozen sample was lyophilized on the freeze dryer until all the solvent was removed. […] This was designated as Pattern 2.
A summary of the characterization data for the samples of Pattern 5 can be found in Table 9.

[2] = format: physicochemical
Procedure: Next, methyl isobutyl ketone was added and then water. In some embodiments, a lower alkyl isobutyl ketone is used in place of methyl isobutyl ketone. In some embodiments, the lower alkyl is a C1-3 alkyl. In some embodiments, the lower alkyl is methyl or ethyl. The temperature was lowered to <10° C. The remaining solid was isolated and washed with methyl isobutyl ketone to produce the final DAM (denatonium acetate monohydrate).

[3] = Gravimetric Vapor Sorption (GVS) experiments; format: physicochemical
Procedure: Several Gravimetric Vapor Sorption (GVS) experiments were carried out to investigate the behavior of DAM over a range of different relative humidity levels. […] This experiment used a similar method to GVS 1 without the steps involving 90% RH where the large mass changes were observed and equilibrium was not reached. […] Most of the mass change (1.3-1.4% increase) occurred between 0-10% RH.

[4] = Storage under stress conditions (temperature / relative humidity); format: physicochemical; conditions: for UPLC purity after storage: input purity 99.5%
Source text: It also lost mass when taken to relative humidity levels of less than 10%.
It also loses mass when taken to relative humidity levels of less than 10%.
as §1

CC(=O)[O-].CC[N+](CC)(CC(=O)Nc1c(C)cccc1C)Cc1ccccc1.O [DAM Pattern 2]
XRPD form after storage in closed vial ([1]; 7 weeks): Conversion to Pattern 1 by XRPD | XRPD form after storage in closed vial ([1]; 7 weeks, listed as Pattern 2): converted to Pattern 1; also recorded: consistent with Pattern 1

CC(=O)[O-].CC[N+](CC)(CC(=O)Nc1c(C)cccc1C)Cc1ccccc1.O [DAM Pattern 4]
XRPD form after storage in closed vial ([1]; 6 weeks): Conversion to Pattern 1 by XRPD | XRPD form after storage in closed vial ([1]; 6 weeks, listed as Pattern 4): conversion to Pattern 1

CC(=O)[O-].CC[N+](CC)(CC(=O)Nc1c(C)cccc1C)Cc1ccccc1 [DAA, Denatonium Acetate, anhydrous]
degradation products [2]: either (A) lidocaine and benzyl acetate or it degraded to (B) 2-(diethylamino)-3-phenyl-N-(2,6-dimethylphenylpropionamide

CC(=O)[O-].CC[N+](CC)(CC(=O)Nc1c(C)cccc1C)Cc1ccccc1 [DAM, denatonium acetate monohydrate]
mass change ([3]; GVS 2, between 0-10% RH): 1.4% | mass change ([3]; GVS 3, between 0-10% RH): 1.3-1.4% | sample appearance after GVS ([3]; after GVS 1 (40-90-0-90-0-40)): sorption cycle. Sample had formed a solid mass with powdery | sample appearance after GVS ([3]; after GVS 2 (40-80-0-80-0-40), acetate monohydrate): remained as a free-flowing powder; also recorded: Sample remained free flowing solid | sample appearance after GVS ([3]; after GVS 3 (40-0-80-0-80-0-40), acetate monohydrate): remained as a free-flowing powder; also recorded: Sample remained free flowing solid | XRPD post GVS ([3]; post GVS 1, 2, 3): Shows no change in form by XRPD post GVS 1, 2, 3 | XRPD post GVS ([3]; post GVS 2): consistent with Pattern 1 | XRPD post GVS ([3]; post GVS 3): consistent with Pattern 1 | hygroscopicity ([3]; relative humidity levels above 80%, acetate monohydrate): ED21356-001-001-00 is very hygroscopic especially at levels | mass behaviour at low humidity ([3]; relative humidity levels of less than 10%, acetate monohydrate): lost mass; also recorded: loses mass | XRPD form after storage at 0% RH ([4]; 0% RH, open vial in GVS instrument, 2 days, acetate monohydrate): converted to Pattern 5; also recorded: consistent with Pattern 5; also recorded: change in form to Pattern 5 | observation after storage ([4]; 25° C., 96% RH, 5 days, acetate monohydrate): deliquesce; also recorded: Sample had deliquesced | XRPD after storage ([4]; 25° C., 96% RH, 7 days): Amorphous | observation after storage ([4]; 25° C., 96% RH, 7 days): deliquesced | UPLC purity after storage ([4]; 25° C., 96% RH, 7 days): UPLC purity 98.9% | XRPD after storage ([4]; 40° C., 75% RH, 7 days): Shows no change in form by XRPD after 7 days | UPLC purity after storage ([4]; 40° C., 75% RH, 7 days): UPLC purity 99.4% | observation after storage ([4]; 40° C., 75% RH, after 5 and 7 days): Remained a solid after 5 and 7 days.

CC(=O)[O-].CC[N+](CC)(CC(=O)Nc1c(C)cccc1C)Cc1ccccc1.O [DAM Pattern 5]
XRPD form after standing on disc for 4 hours [1]: Conversion to Pattern 1 by XRPD | XRPD form after standing on disc for 4 hours ([1]; listed as Pattern 5): readily convert to Pattern 1; also recorded: conversion to Pattern 1; also recorded: converted to Pattern 1; also recorded: reverted to Pattern 1 | stability of the pattern ([1]; ambient laboratory conditions): metastable | XRPD form after storage in closed vial ([1]; 6 weeks, listed as Pattern 5): converted to Pattern 1 | XRPD form after standing overnight on disc [1]: Conversion to Pattern 1 by XRPD | XRPD form after standing overnight on disc ([1]; listed as Pattern 5): convert to Pattern 1; also recorded: reverted to Pattern 1 | XRPD form under ambient laboratory conditions ([1]; within a few hours): converts to Pattern 1
